Data taken from patent publication US20130005676A1 (UNIVERSITY OF ROCHESTER, priority 2009, published 2013).
“Also recorded” adds a separate entry of the source.

Tests used:
wild type mice = experiment: Touch sensitivity (Von Frey filaments) after injection in the Zusanli point of wild type mice; type: in vivo; details: 5 mM injected in Zusanli point, tested one hour after injection
Description: Using Von Frey Filaments, a baseline for pain threshold was established in the wild type. The mice were then injected with 5 mM of dibut 1-cAMP (db-cAMP) in the zunsanli accu-point. To ensure the proper spread of db cAMP, the mice were tested for pain one hour after injections and assessed for touch sensitivity. The experiment was repeated in the same animals 24 h later and yielded similar results.
Mechanical allodynia was evaluated using repeated stimulations with a Von Frey filament exerting 0.02 grams of force onto the plantar surface (Colburn et al., “The Effect of Site and Type of Nerve Injury on Spinal Glial Activation and Neuropathic Pain Behavior,” Exp. Neurol. 157:289-304. (1999), which is hereby incorporated by reference in its entirety). The percentage of negative responses of a total of 10 trials was calculated for each foot. Thermal hyperalgesia was assessed using an Analgesymeter (Ugo Basile, Comerio, Italy) (Stein et al., “Intrinsic Mechanisms of Antinociception in Inflammation: Local Opioid Receptors and Beta-Endorphin,” J. Neurosci. 10:1292-1298 (1990), which is hereby incorporated by reference in its entirety). […] The paw withdrawal was repeated three times for each foot and the average calculated. […]

[1] = test system: mice with neuropathic pain; experiment: Neuropathic pain (sciatic nerve ligation): mechanical allodynia and thermal hyperalgesia; type: in vivo; details: WT mice, combined with acupuncture
Description: Peripheral inflammation was induced by injection of Complete Freud Adjuvant (CFA, mixed with an equal amount of oil, total volume 0.1 ml) in the plantar surface of the left hind paw of mice (25-30 g, Jackson labs) (Raghavendra et al., “Complete Freunds Adjuvant-Induced Peripheral Inflammation Evokes Glial Activation and Proinflammatory Cytokine Expression in the CNS,” Eur. J. Neurosci. 20:467-473 (2004), which is hereby incorporated by reference in its entirety). An equal amount of saline (0.1 ml) was injected in the right hind paw as control. Neuropathic pain was induced by ligation of the sciatic nerve with 4.0 polypropylene suture in mice sedated with ketamine (60 mg/kg, i.p.) and xylazine (10 mg/kg, i.p.) (Bennett et al., “A Peripheral Mononeuropathy in Rat that Produces Disorders of Pain Sensation Like Those Seen in Man,” Pain 33:87-107 (1988); Martucci et al., “The Purinergic Antagonist PPADS Reduces Pain Related Behaviours and Interleukin-1 beta, Interleukin-6, iNOS and nNOS Overproduction in Central and Peripheral Nervous System After Peripheral Neuropathy in Mice,” Pain 137:81-95 (2008), which are hereby incorporated by reference in their entirety).
Mechanical allodynia was evaluated using repeated stimulations with a Von Frey filament exerting 0.02 grams of force onto the plantar surface (Colburn et al., “The Effect of Site and Type of Nerve Injury on Spinal Glial Activation and Neuropathic Pain Behavior,” Exp. Neurol. 157:289-304. (1999), which is hereby incorporated by reference in its entirety). The percentage of negative responses of a total of 10 trials was calculated for each foot. Thermal hyperalgesia was assessed using an Analgesymeter (Ugo Basile, Comerio, Italy) (Stein et al., “Intrinsic Mechanisms of Antinociception in Inflammation: Local Opioid Receptors and Beta-Endorphin,” J. Neurosci. 10:1292-1298 (1990), which is hereby incorporated by reference in its entirety). In short, a mobile radiant heat source was focused on the hind paw, and the paw withdrawal latencies were defined as the time taken by the mouse to remove its hind paw from the heat source (max 20 sec to avoid tissue damage). The paw withdrawal was repeated three times for each foot and the average calculated. To avoid conditioning to stimulation a 5 min rest period was interposed between each trial in both thermal and mechanical tests. Behavioral parameters were evaluated prior to intraplantar injection of CFA or nerve ligation (i.e. day 0), and again on day 3-4 in mice receiving the CFA injection, and at day 5-7 in mice with nerve ligation unless otherwise noted. Prior to injection of CCPA, saline, or acupuncture in the Zusanli point, the mice were placed in a restraining under light isoflurane anesthesia (˜1%). […]

AMP deaminase = experiment: HPLC analysis of AMP degradation in muscle/subcutis sections from the Zusanli point; type: biochemical, mice; details: 200 μM, tissue incubated in 1 mM AMP for 45 min
Description: The analysis of enzymatic degradation of purines was based on sections (400 μm) of skeletal muscles with overlying subcutis harvested from tissue in the Zusanli point. Each section per well was placed into a 6-well plate with 2 ml (in a phosphate-free buffer (in mM: 2 CaCl2, 120 NaCl, 5 KCL, 10 Glucose, 20 HEPES, pH=7.3) and bubble with 100% O2 containing 1 mM AMP with or without 500 μM deoxycoformycin (Tocris Bioscience, UK). The samples were collected from each well at 0 and 45 min and stored at −80° C. for HPLC analysis. The analyses were carried out on an ESA reverse-phase H584 HPLC system (ESA Inc., USA) and an ESA model 526 UV detector (ESA Inc.) as previously described (Cui et al., “The Organic Cation Transporter-3 is a Pivotal Modulator of Neurodegeneration in the Nigrostriatal Dopaminergic Pathway,” Proc. Nat'l. Acad. Sci. USA 106:8043-8048 (2009); Volonte et al., “Development of an HPLC Method for Determination of Metabolic Compounds in Myocardial Tissue,” J. Pharm. Biomed. Anal. 35:647-653 (2004), which are hereby incorporated by reference in their entirety). Chromatographic separation was achieved by using a Lichrospher® 100 RP-18 column (5 μm, 250 mm×3 mm; Merck, Germany). […] Eluted purines were detected at 260 nm, and the chromatographic peaks were integrated using CoulArray software.

[2] = test system: mice with inflammatory pain (CFA); experiment: Inflammatory pain (CFA in paw): mechanical allodynia (Von Frey) and thermal hyperalgesia; type: in vivo
Description: Peripheral inflammation was induced by injection of Complete Freud Adjuvant (CFA, mixed with an equal amount of oil, […], Jackson labs) (Raghavendra et al., “Complete Freunds Adjuvant-Induced Peripheral Inflammation Evokes Glial Activation and Proinflammatory Cytokine Expression in the CNS,” Eur. J. Neurosci. 20:467-473 (2004), which is hereby incorporated by reference in its entirety). […] Neuropathic pain was induced by ligation of the sciatic nerve with 4.0 polypropylene suture in mice sedated with ketamine (60 mg/kg, i.p.) and xylazine (10 mg/kg, i.p.) (Bennett et al., “A Peripheral Mononeuropathy in Rat that Produces Disorders of Pain Sensation Like Those Seen in Man,” Pain 33:87-107 (1988); Martucci et al., “The Purinergic Antagonist PPADS Reduces Pain Related Behaviours and Interleukin-1 beta, Interleukin-6, iNOS and nNOS Overproduction in Central and Peripheral Nervous System After Peripheral Neuropathy in Mice,” Pain 137:81-95 (2008), which are hereby incorporated by reference in their entirety).
Mechanical allodynia was evaluated using repeated stimulations with a Von Frey filament exerting 0.02 grams of force onto the plantar surface (Colburn et al., “The Effect of Site and Type of Nerve Injury on Spinal Glial Activation and Neuropathic Pain Behavior,” Exp. Neurol. 157:289-304. (1999), which is hereby incorporated by reference in its entirety). The percentage of negative responses of a total of 10 trials was calculated for each foot. Thermal hyperalgesia was assessed using an Analgesymeter (Ugo Basile, Comerio, Italy) (Stein et al., “Intrinsic Mechanisms of Antinociception in Inflammation: Local Opioid Receptors and Beta-Endorphin,” J. Neurosci. 10:1292-1298 (1990), which is hereby incorporated by reference in its entirety). In short, a mobile radiant heat source was focused on the hind paw, and the paw withdrawal latencies were defined as the time taken by the mouse to remove its hind paw from the heat source (max 20 sec to avoid tissue damage). The paw withdrawal was repeated three times for each foot and the average calculated. To avoid conditioning to stimulation a 5 min rest period was interposed between each trial in both thermal and mechanical tests. Behavioral parameters were evaluated prior to intraplantar injection of CFA or nerve ligation (i.e. day 0), and again on day 3-4 in mice receiving the CFA injection, and at day 5-7 in mice with nerve ligation unless otherwise noted. Prior to injection of CCPA, saline, or acupuncture in the Zusanli point, the mice were placed in a restraining under light isoflurane anesthesia (˜1%). The total duration of anesthesia was ˜2 min and mice with inflammatory, neurogenic pain, and their controls were treated similarly. 2-chloro-N6-cyclopentyl-adenosine (CCPA, 0.1 mM, 20 μl) was injected in the Zusanli point ˜5 min before acupuncture. […] The needle was slowly rotated ˜2 time (˜20-30 sec) every 5 min for a total of 30 min during an acupuncture session. A microdialysis probe (MD-2211, Bioanalytical systems, West Lafayette, Ind.) was implanted 1-3 hrs prior to collection of microdialysis samples. The microdialysis probe was implanted in a distance of 0.4-0.6 mm from the Zusanli point. The microdialysis probe was perfused with Ringer's solution at a rate of 1 μl per minute. The microdialysates were collected on ice and the perfusate collected over a 30 min period (30 μl) was immediately frozen at −80° C. until HPLC analysis. Deoxycoformycin was administered in a dose of 50 mg/kg i.p. 30 min prior to acupuncture.

[3] = test system: mice with inflammatory or neuropathic pain; experiment: Statements covering both inflammatory and neuropathic pain models; type: in vivo; details: 50 mg/kg i.p. 30 min prior to 30 min acupuncture; vehicle + acupuncture ~[…]
Description: Peripheral inflammation was induced by injection of Complete Freud Adjuvant (CFA, mixed with an equal amount of oil, total volume 0.1 ml) in the plantar surface of the left hind paw of mice (25-30 g, Jackson labs) (Raghavendra et al., “Complete Freunds Adjuvant-Induced Peripheral Inflammation Evokes Glial Activation and Proinflammatory Cytokine Expression in the CNS,” Eur. J. Neurosci. 20:467-473 (2004), which is hereby incorporated by reference in its entirety). An equal amount of saline (0.1 ml) was injected in the right hind paw as control. […]
Mechanical allodynia was evaluated using repeated stimulations with a Von Frey filament exerting 0.02 grams of force onto the plantar surface (Colburn et al., “The Effect of Site and Type of Nerve Injury on Spinal Glial Activation and Neuropathic Pain Behavior,” Exp. Neurol. 157:289-304. (1999), which is hereby incorporated by reference in its entirety). The percentage of negative responses of a total of 10 trials was calculated for each foot. Thermal hyperalgesia was assessed using an Analgesymeter (Ugo Basile, Comerio, Italy) (Stein et al., “Intrinsic Mechanisms of Antinociception in Inflammation: Local Opioid Receptors and Beta-Endorphin,” J. Neurosci. 10:1292-1298 (1990), which is hereby incorporated by reference in its entirety). […] The paw withdrawal was repeated three times for each foot and the average calculated. […] Behavioral parameters were evaluated prior to intraplantar injection of CFA or nerve ligation (i.e. day 0), and again on day 3-4 in mice receiving the CFA injection, and at day 5-7 in mice with nerve ligation unless otherwise noted. […]

[4] = test system: inflammatory pain, rat formalin test; details: local injection; cited from earlier work

**Q.** With `CCCC(=O)Nc1ncnc2c1ncn2[C@@H]1O[C@@H]2COP(=O)(O)O[C@H]2[C@H]1OC(=O)CCC` [dibutyryl cAMP] as the compound, how does the sensitivity to touch (wild type mice) read?
**A.** The sensitivity to touch was “increased transiently”.

**Q.** For `OC[C@H]1O[C@@H](n2cnc3c2NC=NC[C@H]3O)C[C@@H]1O` [deoxycoformycin], which “effect on duration of acupuncture pain relief, mechanical and thermal stimulation” value [1] is on record?
**A.** The value was “prolonged”.

**Q.** What about the “reduction of AMP conversion to IMP” value (AMP deaminase) of the same compound?
**A.** Its value is roughly 50%.

**Q.** And the “reduction of AMP conversion to IMP” value (AMP deaminase; listed as Deoxycoformycin)?
**A.** Its value is “approximately 50%”.

**Q.** And the “tactile or thermal sensitivity when not combined with acupuncture” value ([2]; CFA, no acupuncture)?
**A.** The value was “does not alter the pain sensitivity; also recorded: no effect”.

**Q.** And the “effect on duration of acupuncture pain relief, mechanical and thermal stimulation” value ([2]; WT mice, combined with acupuncture)?
**A.** The value was “prolonged”.

**Q.** And the “duration of suppression of mechanical allodynia and thermal pain” value [3]?
**A.** Its value is roughly 3.0 h.

**Q.** What about the “pain relief on co-administration with an adenosine kinase inhibitor” value [4] of the same compound?
**A.** The value was “augmented the pain relief”.
